Assay results published in article PMC9144915, “Indole Alkaloids and Chromones from the Stem Bark of Cassia alata and Their Antiviral Activities” (Molecules, 2022).
Converted amounts (≈) assume the structure as drawn. Like-named read-outs stand apart in the source and are kept apart here.

Columns and labels:
Human rotavirus Wa group = test: Anti-rotavirus assay, prevention of cytopathic effect in MA104 cells (mixed treatment); format: cell-based; conditions: for EC50: Human rotavirus, MA104, rotavirus 0.01 MOI, MA-104 cells, 72 h, CPE; for TI (CC50/EC50): therapeutic index
Procedure: In order to study whether the chromones and indole alkaloids from the stem bark of C. alata had more broad antiviral activities, compounds 1–5 were also tested for their anti-rotavirus activity. Their ability to prevent the cytopathic effects of rotavirus in MA104 cells was tested according to our previous literatures, and their effects were measured in parallel with the determination of antiviral activity using ribavirin as a positive control.
(§1) The anti rotavirus activities were tested according to our previous literature. Human rotavirus Wa group was used to infect the cell culture MA104 in vitro, the 50% cytotoxicity concentration (CC50) and half maximal effective concentration (EC50) were evaluated, and ribavirin (C8H12N4O5, CAS No. […], a broad-spectrum antiviral drug) was used as a positive control. MA-104 cells (1 × 10^5 cells per well) were grown in 96-well plates for 48 h. The media were removed and replaced by new media containing serial dilutions of compounds under test. After incubation for 72 h, the media were discarded, and 5.0 μL of MTT solution was added to each well. Plates were then incubated at 37 °C for 4 h. The solution was removed, and 100 μL of 0.04 mol/L HCl-isopropanol was added to each well to dissolve formazan crystals. Using a microplate reader, the absorbance of each well was measured at 540 nm. After subtracting the background absorbance at 655 nm, the 50% CC50 of each compound was estimated by regression analysis.
In the mixed treatment assay, each compound was mixed with a 0.01 multiplicity of infection (MOI) of the rotaviruses at various concentrations (1–160 μg/mL) and incubated at 4 °C for 1 h. The mixtures were inoculated in triplicates onto near confluent MA-104 cell monolayers (1 × 10^5 cells per well) for 1 h with occasional rocking. The solution was removed, and the cells were replaced with eagles minimum essential medium (EMEM) containing 1 μg/mL trypsin. […] EC50 was estimated by regression analysis.

[1] = Cytotoxicity in MA-104 cells (MTT); format: cell-based; conditions: African green monkey
Procedure: as §1

[2] = test system: tobacco mosaic virus (TMV); test: Anti-TMV activity, half-leaf method; format: in vivo; conditions: in Nicotiana glutinosa; for inhibition at 20 µM: read-out: % Inhibition at 20 µM
Procedure: The anti-TMV activities were tested using the half-leaf method according to our previous studies, and Ningnanmycin (C16H23O8N7, CAS No. 156410-09-2), a commercial cytosine nucleoside peptide type antibiotics for plant disease in China, was used as a positive control. The virus was inhibited by mixing with the solution of tested compounds (20 μM in DMSO). After 30 min, the mixture was inoculated on the left side of the leaves of N. glutinosa, whereas the right side of the leaves was inoculated with the mixture of DMSO solution with the virus as control. The local lesion numbers were recorded 3–4 days after inoculation. Three repetitions were conducted for each compound. The inhibition rates were calculated according to the formula: inhibition rate (%) = [(C − T)/C] × 100%(1) where C is the average number of local lesions of the control and T is the average number of local lesions of the treatment. Ningnanmycin (20 μM in DMSO), a commercial virucide for plant disease in China, was used as a positive control.

TMV = test: Protective effect on TMV (pretreatment of tobacco plant before inoculation); format: in vivo; conditions: Tobacco mosaic virus; tobacco plant pretreated with 20 μM solution for 6 h before inoculation with TMV; read-out: protective effect inhibition rate
Procedure: For compounds with significant activities in half-leaf method assays, their protective effects on TMV were also evaluated by pretreating a tobacco plant with 20 μM solutions of compounds in DMSO, or a solution of DMSO for 6 h before inoculation with TMV.

SMILES | EC50 (Human rotavirus Wa group) | TI (CC50/EC50) (Human rotavirus Wa group) | CC50 at 72 h [1] | IC50 [2] | inhibition at 20 µM [2] | inhibition at 20 µM (TMV) | CC50 at 72 h ([1]; MA-104 cells, 72 h, MTT, read-out: CC50)
COc1cc(C)cc2c1CN(C)C2=O [Compound 1, 4-Methoxy-2,6-dimethylisoindolin-1-one] | 14.6 µg/mL (≈ 76.3 µM) | 9.75 | 142 µg/mL (≈ 745 µM) | 55.3 µM | 26.5 ± 2.8% | – | –
COc1cc(CO)cc2c1CN(C)C2=O [Compound 2, 6-(Hydroxymethyl)-4-methoxy-2-methylisoindolin-1-one] | 14.8 µg/mL (≈ 71.4 µM) | 11.8 | 175 µg/mL (≈ 845 µM) | 22.6 µM | 44.4 ± 3.5% | 40.8% | –
COc1cc(CCCO)cc2c1CN(C)C2=O [Compound 3, 6-(3-Hydroxypropyl)-4-methoxy-2-methylisoindolin-1-one] | 13.6 µg/mL (≈ 57.8 µM) | 15.3 | 208 µg/mL (≈ 885 µM) | 14.2 µM | 66.5 ± 4% | 68.2% | –
CC(=O)Cc1c(CO)ccc2c1OC(C)(C)CC2=O [Compound 4, 7-(Hydroxymethyl)-2,2-dimethyl-8-(2-oxopropyl)chroman-4-one] | 15.5 µg/mL (≈ 59.1 µM) | 12.4 | 192 µg/mL (≈ 734 µM) | 17.9 µM | 52.3 ± 3.6% | 49.3% | –
COc1cc(C)cc2c1CN(Cc1ccc3c(c1CC(C)=O)OC(C)(C)CC3=O)C2=O [Compound 5, 2-((3,4-Dihydro-2,2-dimethyl-4-oxo-8-(2-oxopropyl)-2H-chromen-7-yl)methyl)-4-methoxy-6-methyl-isoindolin-1-one] | 12.8 µg/mL (≈ 30.4 µM) | 12.0 | 154 µg/mL (≈ 364 µM) | 43.4 µM | 31.8 ± 3.3% | – | –
CNCC(=O)N[C@@H](CO)C(=O)N[C@H]1[C@H](O)[C@@H](O)[C@H](n2ccc(N)nc2=O)O[C@@H]1C(N)=O [Ningnanmycin, reference compound] | – | – | – | 37.2 µM | 32.8 ± 3% | – | –
NC(=O)c1ncn([C@@H]2O[C@H](CO)[C@@H](O)[C@H]2O)n1 [Ribavirin, reference compound] | 12.2 µg/mL (≈ 50 µM) | 19.2 | – | – | – | – | 234 µg/mL (≈ 960 µM)
